biological target: T1, human Nav1.7 channels (Homo sapiens, UniProt Q15858); assay: FRET assay, human Nav1.7 (EFS on FDSS); assay type: cell-based; conditions: CHO cells expressing human Nav1.7, read-out: IC50 against Nav1.7
T1 construct: expressed in transfected cells; host or cells: CHO
Method in brief: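 IC50 was derived from normalized 440 nm fluorescence ratios of the EFS-evoked membrane-potential response read on FDSS. Recombinant CHO cells were sequentially dye-loaded with coumarin/oxonol FRET pair at room temperature in pH 7.4 buffer before compound addition.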

T1 sequence (Q15858 whole entry): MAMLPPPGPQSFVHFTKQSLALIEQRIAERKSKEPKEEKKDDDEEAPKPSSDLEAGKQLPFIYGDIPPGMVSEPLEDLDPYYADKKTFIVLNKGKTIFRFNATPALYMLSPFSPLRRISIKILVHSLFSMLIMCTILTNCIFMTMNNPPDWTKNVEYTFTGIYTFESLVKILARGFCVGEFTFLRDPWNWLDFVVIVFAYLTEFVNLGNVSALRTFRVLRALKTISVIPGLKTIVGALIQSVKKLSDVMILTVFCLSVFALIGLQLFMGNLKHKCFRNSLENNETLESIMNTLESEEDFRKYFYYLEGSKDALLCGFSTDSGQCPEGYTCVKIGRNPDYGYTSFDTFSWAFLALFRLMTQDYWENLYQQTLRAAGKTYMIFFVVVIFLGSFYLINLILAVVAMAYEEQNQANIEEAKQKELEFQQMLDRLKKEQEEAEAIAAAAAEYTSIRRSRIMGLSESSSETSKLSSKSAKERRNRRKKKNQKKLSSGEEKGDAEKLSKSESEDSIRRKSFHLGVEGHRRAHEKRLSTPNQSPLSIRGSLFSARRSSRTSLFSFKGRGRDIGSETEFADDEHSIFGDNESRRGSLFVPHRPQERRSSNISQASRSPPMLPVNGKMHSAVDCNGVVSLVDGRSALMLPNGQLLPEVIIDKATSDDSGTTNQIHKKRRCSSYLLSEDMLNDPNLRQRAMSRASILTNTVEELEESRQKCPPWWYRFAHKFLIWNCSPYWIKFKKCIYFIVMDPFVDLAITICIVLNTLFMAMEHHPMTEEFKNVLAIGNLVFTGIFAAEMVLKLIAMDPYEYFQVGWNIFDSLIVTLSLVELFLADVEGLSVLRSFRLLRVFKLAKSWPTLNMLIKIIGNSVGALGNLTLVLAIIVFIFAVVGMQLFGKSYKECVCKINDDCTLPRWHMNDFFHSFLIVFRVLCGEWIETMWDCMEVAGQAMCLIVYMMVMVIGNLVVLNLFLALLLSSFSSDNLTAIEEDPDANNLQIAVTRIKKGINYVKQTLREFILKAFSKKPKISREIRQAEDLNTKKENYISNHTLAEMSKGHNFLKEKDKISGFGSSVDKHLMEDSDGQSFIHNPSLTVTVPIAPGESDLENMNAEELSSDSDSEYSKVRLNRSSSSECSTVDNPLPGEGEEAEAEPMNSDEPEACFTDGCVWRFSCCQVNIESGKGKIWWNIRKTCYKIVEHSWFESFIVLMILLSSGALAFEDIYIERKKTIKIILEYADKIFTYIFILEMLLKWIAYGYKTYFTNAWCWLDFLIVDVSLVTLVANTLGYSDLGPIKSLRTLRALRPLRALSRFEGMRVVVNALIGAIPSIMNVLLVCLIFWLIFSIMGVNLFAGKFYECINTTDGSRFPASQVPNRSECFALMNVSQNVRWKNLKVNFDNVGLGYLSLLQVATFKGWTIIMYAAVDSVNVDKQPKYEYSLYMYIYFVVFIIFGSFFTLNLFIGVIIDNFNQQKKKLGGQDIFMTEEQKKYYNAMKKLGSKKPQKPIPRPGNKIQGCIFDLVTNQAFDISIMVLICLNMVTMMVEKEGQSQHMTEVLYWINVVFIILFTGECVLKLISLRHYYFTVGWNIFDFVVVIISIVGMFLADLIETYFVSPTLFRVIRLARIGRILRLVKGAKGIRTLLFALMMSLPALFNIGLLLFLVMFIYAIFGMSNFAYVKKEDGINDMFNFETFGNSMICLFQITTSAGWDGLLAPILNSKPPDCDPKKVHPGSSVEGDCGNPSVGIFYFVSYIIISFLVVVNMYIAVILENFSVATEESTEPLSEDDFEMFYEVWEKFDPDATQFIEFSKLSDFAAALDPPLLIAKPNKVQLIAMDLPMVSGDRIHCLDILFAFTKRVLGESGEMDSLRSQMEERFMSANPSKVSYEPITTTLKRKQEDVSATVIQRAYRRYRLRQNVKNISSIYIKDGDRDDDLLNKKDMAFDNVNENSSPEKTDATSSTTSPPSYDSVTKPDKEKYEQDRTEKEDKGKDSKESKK

IC50, < 1000 nM:
Cc1cc(C(C)NC(=O)c2ccnc(NC(=O)C(C)C)n2)cnc1OCC(F)(F)F (single isomer, unassigned) [Example 225, 2-isobutyramido-N-(1-(5-methyl-6-(2,2,2-trifluoroethoxy)pyridin-3-yl)ethyl)pyrimidine-4-carboxamide]
CCC(=O)Nc1nc(C)cc(C(=O)NCc2ccc(OCC(F)(F)F)nc2OC)n1 [Example 180, N-((2-methoxy-6-(2,2,2-trifluoroethoxy)pyridin-3-yl)methyl)-6-methyl-2-propionamidopyrimidine-4-carboxamide]
Cc1cc(C(=O)NCc2cnc(OCC(F)(F)C(F)F)c(C)c2)nc(NC(=O)C2CC2)n1 [Example 947, 2-(cyclopropanecarboxamido)-6-methyl-N-((5-methyl-6-(2,2,3,3-tetrafluoropropoxy)pyridin-3-yl)methyl)pyrimidine-4-carboxamide]
Cc1cc(C(=O)NC(C)c2cnc(OCC(F)(F)F)c(C)c2)cc(NC(=O)C2CC2)n1 (single isomer, unassigned) [Example 823, 2-(cyclopropanecarboxamido)-6-methyl-N-(1-(5-methyl-6-(2,2,2-trifluoroethoxy)pyridin-3-yl)ethyl)isonicotinamide]

biological target: T2, human Nav1.3 channels (Homo sapiens, UniProt Q9NY46); assay: FRET assay, human Nav1.3 (EFS on FDSS); assay type: cell-based; conditions: HEK293 cells expressing human Nav1.3, read-out: IC50 against Nav1.3
T2 construct: expressed in transfected cells; host or cells: HEK293
T2 sequence (Q9NY46 whole entry): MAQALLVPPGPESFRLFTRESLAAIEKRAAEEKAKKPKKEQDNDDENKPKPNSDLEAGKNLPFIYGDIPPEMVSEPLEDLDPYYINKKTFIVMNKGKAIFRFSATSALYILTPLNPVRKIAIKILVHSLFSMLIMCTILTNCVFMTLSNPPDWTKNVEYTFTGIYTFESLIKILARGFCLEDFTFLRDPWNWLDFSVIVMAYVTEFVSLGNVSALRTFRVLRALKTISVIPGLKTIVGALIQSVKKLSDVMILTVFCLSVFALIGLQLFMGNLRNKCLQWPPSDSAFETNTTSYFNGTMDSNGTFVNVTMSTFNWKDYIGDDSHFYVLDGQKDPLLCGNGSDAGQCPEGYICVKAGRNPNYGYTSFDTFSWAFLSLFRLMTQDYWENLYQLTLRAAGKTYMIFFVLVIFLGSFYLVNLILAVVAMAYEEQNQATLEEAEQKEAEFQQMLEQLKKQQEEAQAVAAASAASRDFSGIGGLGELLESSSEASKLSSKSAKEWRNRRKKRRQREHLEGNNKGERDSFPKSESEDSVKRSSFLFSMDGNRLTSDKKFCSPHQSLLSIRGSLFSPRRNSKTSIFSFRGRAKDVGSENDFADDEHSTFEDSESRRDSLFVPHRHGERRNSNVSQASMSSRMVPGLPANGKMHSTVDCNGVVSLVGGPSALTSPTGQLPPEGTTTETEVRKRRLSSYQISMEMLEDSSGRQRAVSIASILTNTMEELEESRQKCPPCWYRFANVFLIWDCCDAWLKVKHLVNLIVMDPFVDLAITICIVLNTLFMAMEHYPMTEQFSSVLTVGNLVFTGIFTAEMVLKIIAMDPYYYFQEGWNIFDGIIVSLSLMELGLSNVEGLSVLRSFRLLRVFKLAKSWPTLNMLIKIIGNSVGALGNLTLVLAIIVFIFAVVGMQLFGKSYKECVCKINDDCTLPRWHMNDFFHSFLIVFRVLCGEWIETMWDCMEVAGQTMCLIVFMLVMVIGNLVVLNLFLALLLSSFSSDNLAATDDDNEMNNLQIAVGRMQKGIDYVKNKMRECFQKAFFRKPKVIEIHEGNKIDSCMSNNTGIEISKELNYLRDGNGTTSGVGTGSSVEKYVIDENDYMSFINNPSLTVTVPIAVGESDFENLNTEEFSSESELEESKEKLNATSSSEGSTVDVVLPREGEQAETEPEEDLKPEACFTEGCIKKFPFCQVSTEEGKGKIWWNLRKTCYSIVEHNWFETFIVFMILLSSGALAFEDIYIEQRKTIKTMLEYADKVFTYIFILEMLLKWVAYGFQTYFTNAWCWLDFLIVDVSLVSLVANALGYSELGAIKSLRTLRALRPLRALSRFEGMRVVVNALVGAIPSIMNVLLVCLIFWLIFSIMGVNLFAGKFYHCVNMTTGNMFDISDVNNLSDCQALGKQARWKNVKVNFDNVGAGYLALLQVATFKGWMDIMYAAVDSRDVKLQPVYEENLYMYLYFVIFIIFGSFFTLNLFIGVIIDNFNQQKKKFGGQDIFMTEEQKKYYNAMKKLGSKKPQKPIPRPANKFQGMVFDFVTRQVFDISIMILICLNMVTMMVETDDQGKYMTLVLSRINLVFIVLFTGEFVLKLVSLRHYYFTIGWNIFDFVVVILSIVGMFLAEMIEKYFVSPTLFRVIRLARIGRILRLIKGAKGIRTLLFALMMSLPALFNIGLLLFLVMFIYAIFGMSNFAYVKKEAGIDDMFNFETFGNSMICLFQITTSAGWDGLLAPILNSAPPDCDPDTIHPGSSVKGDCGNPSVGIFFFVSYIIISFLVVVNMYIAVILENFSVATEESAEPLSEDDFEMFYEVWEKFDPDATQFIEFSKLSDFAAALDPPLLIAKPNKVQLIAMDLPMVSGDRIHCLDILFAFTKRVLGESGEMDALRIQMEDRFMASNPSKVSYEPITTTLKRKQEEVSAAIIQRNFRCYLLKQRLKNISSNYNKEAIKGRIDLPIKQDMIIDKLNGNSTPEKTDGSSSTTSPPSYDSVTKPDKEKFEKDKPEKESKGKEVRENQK
Experimental: The inhibitory activities of compounds against voltage gated sodium channels are determined by methodology well known in the art.
The ability of the aryl substituted carboxamide derivatives of the formula (I) to inhibit the NaV1.3, Nav1.7 and Nav1.5 channels is measured by Fluorescence Resonance Energy Transfer (FRET) assay and electrophysiology assay described below.
This screen is used to determine the effects of compounds on human Nav1.3, human Nav1.7, and human Nav1.5 channels, utilising electrical field stimulation (EFS) system in 96-well plate format on FDSS (Hamamatsu Photonics) platform. The change of membrane potential is monitored with FRET dye pair, oxonol (DiSBAC2(3)) and coumarin (CC2-DMPE).
Each HEK293 cells expressing human Nav1.3 channels and HEK293 cells expressing human Nav1.5 channels are grown in T225 flasks, in a 5% CO2 humidified incubator to about 80% confluence. Media composition consists of Dulbecco's Modified Eagle Medium (high glucose), 10% FCS, 100 units/mL Penicillin, 100 microgram/mL Streptomycin and 500 microgram/mL Geneticine.
Protocol: • Seed each cell lines (1×10^5 cells/well) into poly-D-lysine coated 96-well plates prior to experimentation. • Incubate at 37° C. in 5% CO2 for 24 hours. • Wash each well with assay buffer (140 mM NaCl, 4.5 mM KCl, 10 mM D-Glucose, 2 mM CaCl2, 1 mM MgCl2, 10 mM HEPES, pH 7.4 adjusted with NaOH) twice. • Add 1st loading solution containing 10 microM CC2-DMPE and 0.06% Pluronic F-127 in assay buffer. • Incubate the plate at room temperature in dark for 1 hour. • Remove 1st loading solution and added 2nd loading solution containing 15 microM DiSBAC2(3), 0.555 mM VABSC-1 and 0.004% Pluronic F-127 in assay buffer. • Place the plate under the dark at room temperature for 25 minutes. • Add compound solutions into the assay plate. • Set the assay plate in FDSS and placed an EFS device on the plate. • Measure EFS-induced fluorescent response by FDSS.
The data are analyzed and reported as normalized ratios of intensities measured at […]. The process of calculating these ratios is performed as follows:
This analysis is performed using a computerized specific program designed for FDSS generated data. Fluorescence ratio values are plotted using XLfit to determine an IC50 value for each compound.

IC50, < 1000 nM:
Cc1cc(C(C)NC(=O)c2ccnc(NC(=O)C(C)C)n2)cnc1OCC(F)(F)F (single isomer, unassigned) [Example 225, 2-isobutyramido-N-(1-(5-methyl-6-(2,2,2-trifluoroethoxy)pyridin-3-yl)ethyl)pyrimidine-4-carboxamide]
CCC(=O)Nc1nc(C)cc(C(=O)NCc2ccc(OCC(F)(F)F)nc2OC)n1 [Example 180, N-((2-methoxy-6-(2,2,2-trifluoroethoxy)pyridin-3-yl)methyl)-6-methyl-2-propionamidopyrimidine-4-carboxamide]
Cc1cc(C(=O)NCc2cnc(OCC(F)(F)C(F)F)c(C)c2)nc(NC(=O)C2CC2)n1 [Example 947, 2-(cyclopropanecarboxamido)-6-methyl-N-((5-methyl-6-(2,2,3,3-tetrafluoropropoxy)pyridin-3-yl)methyl)pyrimidine-4-carboxamide]
Cc1cc(C(=O)NC(C)c2cnc(OCC(F)(F)F)c(C)c2)cc(NC(=O)C2CC2)n1 (single isomer, unassigned) [Example 823, 2-(cyclopropanecarboxamido)-6-methyl-N-(1-(5-methyl-6-(2,2,2-trifluoroethoxy)pyridin-3-yl)ethyl)isonicotinamide]
CCC(=O)Nc1cc(C(=O)NCc2ccc(F)c(OC(F)(F)F)c2)cc(C)n1 [Example 591, N-(4-fluoro-3-(trifluoromethoxy)benzyl)-2-methyl-6-propionamidoisonicotinamide]
CCC(=O)Nc1cc(C(=O)NCc2ccc(OCC(C)(F)F)nc2)cc(C)n1 [Example 721, N-((6-(2,2-difluoropropoxy)pyridin-3-yl)methyl)-2-methyl-6-propionamidoisonicotinamide]
Cc1cc(C(=O)NCc2cnc(OCC(F)(F)F)c(Cl)c2)cc(NC(=O)CC2CC2)n1 [Example 956, N-((5-chloro-6-(2,2,2-trifluoroethoxy)pyridin-3-yl)methyl)-2-(2-cyclopropylacetamido)-6-methylisonicotinamide]
Cc1cc(CNC(=O)c2cc(C)nc(NC(=O)C(C)C)c2)nc(OCC(F)(F)F)c1 [Example 577, 2-isobutyramido-6-methyl-N-((4-methyl-6-(2,2,2-trifluoroethoxy)pyridin-2-yl)methyl)isonicotinamide]
Cc1cc(CNC(=O)c2ccnc(NC(=O)C3CC3)c2)cc(OC(F)(F)F)c1 [Example 599, 2-(cyclopropanecarboxamido)-N-(3-methyl-5-(trifluoromethoxy)benzyl)isonicotinamide]
Cc1cc(CNC(=O)c2ccnc(NC(=O)C3CC3)n2)ccc1OCC(F)(F)F [Example 779, 2-(cyclopropanecarboxamido)-N-(3-methyl-4-(2,2,2-trifluoroethoxy)benzyl)pyrimidine-4-carboxamide]
CC(C)C(=O)Nc1cc(C(=O)NCc2cccc(OC(F)(F)F)c2F)ccn1 [Example 750, N-(2-fluoro-3-(trifluoromethoxy)benzyl)-2-isobutyramidoisonicotinamide]
CC(=O)Nc1cc(C(=O)NCc2ccc(OC(F)(F)F)c(Cl)c2)ccn1 [Example 967, 2-acetamido-N-(3-chloro-4-(trifluoromethoxy)benzyl)isonicotinamide]
CC(=O)Nc1cc(C(=O)NCc2ccc(Cl)c(C(F)(F)F)c2)ccn1 [Example 682, 2-acetamido-N-(4-chloro-3-(trifluoromethyl)benzyl)isonicotinamide]
CC(=O)Nc1cc(C(=O)NCc2cnc(OCC(F)(F)F)c(C(F)(F)F)c2)cc(C)n1 [Example 727, 2-acetamido-6-methyl-N-((6-(2,2,2-trifluoroethoxy)-5-(trifluoromethyl)pyridin-3-yl)methyl)isonicotinamide]
Cc1cc(CNC(=O)c2ccnc(NC(=O)C3CC3)c2)cnc1OCC(F)F [Example 739, 2-(cyclopropanecarboxamido)-N-((6-(2,2-difluoroethoxy)-5-methylpyridin-3-yl)methyl)isonicotinamide]
CCC(=O)Nc1cc(C(=O)NCc2cc(OC(F)(F)F)ccc2F)cc(C)n1 [Example 609, N-(2-fluoro-5-(trifluoromethoxy)benzyl)-2-methyl-6-propionamidoisonicotinamide]
CC(=O)Nc1cc(C(=O)NCc2cnc(OCC(F)F)c(C)c2)cc(C)n1 [Example 742, 2-acetamido-N-((6-(2,2-difluoroethoxy)-5-methylpyridin-3-yl)methyl)-6-methylisonicotinamide]
O=C(NCc1cnc(OCC(F)(F)F)c(Cl)c1)c1ccnc(NC(=O)C2CC2)c1 [Example 95, N-((5-chloro-6-(2,2,2-trifluoroethoxy)pyridin-3-yl)methyl)-2-(cyclopropanecarboxamido)isonicotinamide]
CC(=O)Nc1cc(C(=O)NCc2cnc(OCC(F)(F)F)c(Cl)c2)ccn1 [Example 93, 2-acetamido-N-((5-chloro-6-(2,2,2-trifluoroethoxy)pyridin-3-yl)methyl)isonicotinamide]
CCC(=O)Nc1cc(C(=O)NC(C)c2ccc(OCC(F)(F)C(F)(F)F)nc2)cc(C)n1 (single isomer, unassigned) [Example 692, 2-methyl-N-(1-(6-(2,2,3,3,3-pentafluoropropoxy)pyridin-3-yl)ethyl)-6-propionamidoisonicotinamide]
CCNC(=O)c1cc(C(=O)NCc2ccc(OCC(F)(F)F)nc2OC)cc(C)n1 [Example 508, N2-ethyl-N4-((2-methoxy-6-(2,2,2-trifluoroethoxy)pyridin-3-yl)methyl)-6-methylpyridine-2,4-dicarboxamide]
Cc1cc(C(C)NC(=O)c2ccc3cccc(O)c3n2)cnc1OCC(F)(F)F (single isomer, unassigned) [Example 535, 8-hydroxy-N-(1-(5-methyl-6-(2,2,2-trifluoroethoxy)pyridin-3-yl)ethyl)quinoline-2-carboxamide]
O=C(NCc1cnc(OCC(F)F)c(C2CC2)c1)c1ccnc(NC(=O)C2CC2)n1 [Example 918, 2-(cyclopropanecarboxamido)-N-((5-cyclopropyl-6-(2,2-difluoroethoxy)pyridin-3-yl)methyl)pyrimidine-4-carboxamide]
Cc1ccc(OCC(F)(F)F)nc1CNC(=O)c1ccnc(NC(=O)C2CC2)c1 [Example 568, 2-(cyclopropanecarboxamido)-N-((3-methyl-6-(2,2,2-trifluoroethoxy)pyridin-2-yl)methyl)isonicotinamide]
CCC(=O)Nc1cc(C(=O)NCc2cc(C(F)(F)F)ccc2F)ccn1 [Example 572, N-(2-fluoro-5-(trifluoromethyl)benzyl)-2-propionamidoisonicotinamide]
Cc1cc(C(=O)NCc2cccc(OCC(F)(F)F)n2)cc(NC(=O)C(C)C)n1 [Example 496, 2-isobutyramido-6-methyl-N-((6-(2,2,2-trifluoroethoxy)pyridin-2-yl)methyl)isonicotinamide]
Cc1cc(C(=O)NCc2cccc(OC(F)(F)F)c2F)cc(NC(=O)C(C)C)n1 [Example 752, N-(2-fluoro-3-(trifluoromethoxy)benzyl)-2-isobutyramido-6-methylisonicotinamide]
Cc1cc(C(=O)NC(C)c2ccc(OCC(F)F)c(Cl)c2)nc(NC(=O)C2CC2)n1 (single isomer, unassigned) [Example 984, N-(1-(3-chloro-4-(2,2-difluoroethoxy)phenyl)ethyl)-2-(cyclopropanecarboxamido)-6-methylpyrimidine-4-carboxamide]
O=C(NCc1cc(C(F)(F)F)ccc1F)c1ccnc(NC(=O)C2CC2)c1 [Example 573, 2-(cyclopropanecarboxamido)-N-(2-fluoro-5-(trifluoromethyl)benzyl)isonicotinamide]
CCCC(=O)Nc1cc(C(=O)NCc2cccc(OCC(F)(F)F)n2)ccn1 [Example 469, 2-butyramido-N-((6-(2,2,2-trifluoroethoxy)pyridin-2-yl)methyl)isonicotinamide]

Source: patent publication US9302991B2, “Arylamide derivatives as TTX-S blockers” (RaQualia Pharma Inc., priority 2010, dated 2016)
